Measurements as given in article PMC3274548, “Toward New Therapeutics for Skin and Soft Tissue Infections: Propargyl-Linked Antifolates Are Potent Inhibitors of MRSA and Streptococcus pyogenes” (PLoS ONE, 2012).
Converted amounts (≈) assume the structure as drawn. Read-outs that look alike come from different tables or passages of the source.

Columns and labels:
[1] = molecular target: T1, S. aureus DHFR (Staphylococcus aureus, UniProt P0A017); test: biochemical; assay type: biochemical; conditions: for Selectivity (h/Sa): IC50 (human)/IC50 (pathogen)
T1 construct: the DHFR gene was inserted into vector pET41 with a His8 tag for purification; His8; made in house; host or cells: E. coli BL21 (DE3)
Procedure: (§1) S. aureus DHFR was cloned, expressed and purified as previously described. Briefly, the DHFR gene was inserted into vector pET41 with a His8 tag for purification. The protein was expressed in E. coli BL21 (DE3) cells. […] The protein was concentrated to ∼5 mg/mL. S. pyogenes DHFR was cloned using PCR from genomic DNA and inserted in vector pET-41.
(§2) Enzyme inhibition assays were performed by monitoring the rate of NADPH oxidation by the DHFR enzyme at an absorbance of 340 nm over five minutes. Assays were performed in the presence of saturating concentrations of NADPH (100 µM) and initiated with dihydrofolate (1 mM). All assays were completed at 25°C in a buffer containing 20 mM TES pH 7.0, 50 mM KCl, 10 mM 2-mercaptoethanol, 0.5 mM EDTA and 1 mg/mL BSA. Inhibition was measured at least three times with inhibitor concentrations near the IC50 value and the average IC50 value is reported with a standard deviation.

[2] = molecular target: S. pyogenes DHFR (Streptococcus pyogenes, UniProt Q9A091); test: biochemical; assay type: biochemical; conditions: IC50 (human)/IC50 (pathogen)
Procedure: as §1, §2

[3] = molecular target: T2, Human DHFR (Homo sapiens, UniProt P00374); test: DHFR enzyme inhibition assay (NADPH oxidation, 340 nm); assay type: biochemical; conditions: human DHFR; average of at least three measurements; read-out: IC50 (nM) Human
T2 sequence (P00374 1-187): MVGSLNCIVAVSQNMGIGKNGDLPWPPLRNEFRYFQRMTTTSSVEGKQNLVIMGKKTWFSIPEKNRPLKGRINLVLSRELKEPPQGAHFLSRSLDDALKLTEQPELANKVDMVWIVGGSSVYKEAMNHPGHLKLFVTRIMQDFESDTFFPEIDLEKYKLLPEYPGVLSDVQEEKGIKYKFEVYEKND
Procedure: as §2

[4] = tested on: MRSA (S.aureus 13709); test: MIC, broth microdilution with Alamar Blue; assay type: cell-based, Staphylococcus aureus; conditions: for Selectivity MRSA: IC50 (MCF10)/MIC (pathogen), both values in µM; for MIC: Staphylococcus aureus, MRSA
Procedure: (§3) Stock solutions of standard antibiotics and test compounds were made at 50 mM in DMSO. […] For susceptibility testing, 10 µL of glycerol stock was suspended in a 10 mL shake flask culture of chemically defined Isosensitest broth (Oxoid) supplemented with 2% w/v glucose. A sample of the shake flask culture was diluted to 1×10^6 cells/mL in media and added to 96-well test plates (100 µL per well) containing test compounds dispensed in DMSO (2 µL) using serial two-fold dilutions. After an incubation period (30°C) determined from the strain specific doubling time, a 0.03% w/v aqueous solution of resazurin (10 µL) was added and the plates were allowed to incubate; each well was then scored for dye reduction.

[5] = tested on: Streptococcus pyogenes; test: MIC, broth microdilution with Alamar Blue; assay type: cell-based; conditions: for Selectivity S. pyogenes: IC50 (MCF10)/MIC (pathogen), both values in µM; for MIC: Streptococcus pyogenes
Procedure: as §3

[6] = tested on: MCF-10 cells; test: Mammalian cell toxicity (Alamar Blue); assay type: cell-based; conditions: Homo sapiens, MCF10; cytotoxicity, 4 h incubation; read-out: IC50 MCF-10
Procedure: Adherent cell lines were maintained in Eagle's Minimal Essential Media (Sigma-Aldrich, St. Louis, MO, USA) with 2 mM glutamine and Earle's Balanced Salt Solution (HyClone, Logan, UT, USA) adjusted to contain 1.5 g/L sodium bicarbonate, 0.1 mM non-essential amino acids, 1 mM sodium pyruvate and 10% fetal calf serum. Fetal calf serum used in these assays was lot matched throughout. […] Toxicity assays were conducted between passages 10–20. Target compound toxicity was measured by incubating the test compound with the cells for 4 h, washing the cells and finally treating the cells with Alamar Blue. After 12–24 h, the fluorescence of the reduced dye was measured. Fluorescence intensity as a function of test compound concentration was fit to the Fermi equation, using non-linear least squares regression analysis, to estimate IC50 values.

[7] = tested on: HepG2 cells; test: Mammalian cell toxicity (Alamar Blue); assay type: cell-based; conditions: Homo sapiens, cytotoxicity, 4 h incubation
Procedure: Fetal calf serum used in these assays was lot matched throughout. All cultures were maintained under a humidified 5% CO2 atmosphere at 37°C, had media refreshed twice weekly and were subcultured by trypsinization and resuspension at a ratio of 1∶5 each week. Toxicity assays were conducted between passages 10–20. Target compound toxicity was measured by incubating the test compound with the cells for 4 h, washing the cells and finally treating the cells with Alamar Blue. After 12–24 h, the fluorescence of the reduced dye was measured. Fluorescence intensity as a function of test compound concentration was fit to the Fermi equation, using non-linear least squares regression analysis, to estimate IC50 values.

[8] = tested on: TMP-SMZ-resistant MRSA strain; test: MIC against clinical isolates of MRSA; assay type: cell-based; conditions: Staphylococcus aureus, clinical isolate, Table 4, read-out: MIC TMP-SMZ^R
[9] = tested on: USA300 CA-MRSA; test: MIC against clinical isolates of MRSA; assay type: cell-based, Staphylococcus aureus; conditions: Staphylococcus aureus, clinical isolate, read-out: MIC USA300 CA-MRSA
[10] = tested on: USA100 HA-MRSA; test: MIC against clinical isolates of MRSA; assay type: cell-based; conditions: Staphylococcus aureus, clinical isolate, read-out: MIC USA100 HA-MRSA
[11] = tested on: HA-MRSA; test: MIC against clinical isolates of MRSA; assay type: cell-based; conditions: Staphylococcus aureus, clinical isolate, read-out: MIC HA-MRSA
[12] = tested on: hVISA Mu3; test: MIC against clinical isolates of MRSA; assay type: cell-based; conditions: Staphylococcus aureus; heteroresistant vancomycin intermediate S. aureus; read-out: MIC hVISA Mu3
[13] = tested on: VISA Mu50; test: MIC against clinical isolates of MRSA; assay type: cell-based; conditions: Staphylococcus aureus, read-out: MIC VISA Mu50
[14] = tested on: MRSA strain containing the F98Y mutation; conditions: cited from earlier work
[15] = 10% fetal calf serum, read-out: MIC MRSA +FCS
[16] = 10% fetal calf serum, value in parentheses, read-out: MIC MRSA +FCS
[17] = value in parentheses, read-out: MIC MRSA
[18] = 10% FCS, read-out: MIC S. pyogenes +FCS
[19] = 10% FCS, value in parentheses, read-out: MIC S. pyogenes +FCS
[20] = value in parentheses, read-out: MIC S. pyogenes
[21] = S. aureus DHFR, average of at least three measurements, read-out: IC50 (nM) Sa

Sequence of S. pyogenes DHFR (Q9A091 entry or part of it): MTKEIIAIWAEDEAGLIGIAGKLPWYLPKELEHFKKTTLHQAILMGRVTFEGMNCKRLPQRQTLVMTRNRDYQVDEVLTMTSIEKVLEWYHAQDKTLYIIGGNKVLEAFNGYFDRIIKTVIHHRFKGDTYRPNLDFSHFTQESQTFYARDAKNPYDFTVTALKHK
T1 sequence (P0A017 whole entry): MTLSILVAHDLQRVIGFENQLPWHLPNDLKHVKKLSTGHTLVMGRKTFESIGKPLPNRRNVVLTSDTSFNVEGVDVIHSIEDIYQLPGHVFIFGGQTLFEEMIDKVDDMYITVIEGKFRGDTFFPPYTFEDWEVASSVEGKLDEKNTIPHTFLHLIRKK

CCc1nc(N)nc(N)c1C#CCc1cc(OC)cc(-c2ccncc2)c1 [Compound 27]
IC50 [1]: 12 ± 2.4 nM | Selectivity (h/Sa) [1]: 5 | Selectivity (h/Sp) [2]: 2 | IC50 [3]: 61 ± 5.7 nM | Selectivity MRSA [4]: 3,272 | MIC [4, 15]: 0.09 µg/mL | MIC [4, 16]: 0.25 µM | MIC [4, 17]: 0.125 µM | MIC ([4]; read-out: MIC MRSA): 0.04 µg/mL | Selectivity S. pyogenes [5]: 3,272 | MIC [5, 18]: 0.09 µg/mL | MIC [5, 19]: 0.25 µM | MIC [5, 20]: 0.125 µM | MIC ([5]; read-out: MIC S. pyogenes): 0.04 µg/mL | IC50 [6]: 409000 nM | IC50 [7]: 465000 nM | MIC [8]: 0.045 µg/mL (≈ 0.125 µM) | MIC ([9]; USA300): 0.045 µg/mL (≈ 0.125 µM) | MIC [9]: 0.045 µg/mL (≈ 0.125 µM) | MIC ([10]; USA100): 0.045 µg/mL (≈ 0.125 µM) | MIC ([10]; first USA100 column): 2.9 µg/mL (≈ 8.07 µM) | MIC ([10]; third USA100 column): 0.045 µg/mL (≈ 0.125 µM) | MIC [11]: 0.045 µg/mL (≈ 0.125 µM) | MIC [12]: 0.045 µg/mL (≈ 0.125 µM) | MIC [13]: 0.18 µg/mL (≈ 0.501 µM)

CCc1nc(N)nc(N)c1C#CCc1cccc(-c2ccncc2)c1 [Compound 28]
Selectivity (h/Sa) [1]: 26 | IC50 [1, 21]: 20 ± 0.5 nM | Selectivity (h/Sp) [2]: 17 | IC50 [3]: 520 ± 23 nM | Selectivity MRSA [4]: 1,900 | MIC [4, 15]: 0.16 µg/mL | MIC [4, 16]: 0.5 µM | MIC [4, 17]: 0.25 µM | MIC ([4]; read-out: MIC MRSA): 0.08 µg/mL | Selectivity S. pyogenes [5]: 3,800 | MIC [5, 18]: 0.09 µg/mL | MIC [5, 19]: 0.25 µM | MIC [5, 20]: 0.125 µM | MIC ([5]; read-out: MIC S. pyogenes): 0.04 µg/mL | IC50 [6]: 475000 nM | IC50 [7]: > 500000 nM | MIC [8]: 0.045 µg/mL (≈ 0.137 µM) | MIC ([9]; USA300): 0.045 µg/mL (≈ 0.137 µM) | MIC [9]: 0.045 µg/mL (≈ 0.137 µM) | MIC ([10]; USA100): 0.045 µg/mL (≈ 0.137 µM) | MIC ([10]; first USA100 column): 2.9 µg/mL (≈ 8.8 µM) | MIC ([10]; third USA100 column): 0.045 µg/mL (≈ 0.137 µM) | MIC [11]: 0.045 µg/mL (≈ 0.137 µM) | MIC [12]: 0.045 µg/mL (≈ 0.137 µM) | MIC [13]: 0.09 µg/mL (≈ 0.273 µM)

CCc1nc(N)nc(N)c1C#CCc1cccc(-c2cccnc2)c1 [Compound 36]
Selectivity (h/Sa) [1]: 9 | IC50 [1, 21]: 33 ± 0.5 nM | Selectivity (h/Sp) [2]: 6 | IC50 [3]: 290 ± 15 nM | Selectivity MRSA [4]: >4,000 | MIC [4, 17]: 0.125 µM | MIC ([4]; read-out: MIC MRSA): 0.041 µg/mL | Selectivity S. pyogenes [5]: >2,000 | MIC [5, 20]: 0.25 µM | MIC ([5]; read-out: MIC S. pyogenes): 0.08 µg/mL | IC50 [6]: > 500000 nM | IC50 [7]: > 500000 nM | MIC [8]: 0.045 µg/mL (≈ 0.137 µM) | MIC ([9]; USA300): 0.36 µg/mL (≈ 1.09 µM) | MIC [9]: 0.02 µg/mL (≈ 0.0607 µM) | MIC ([10]; USA100): 0.36 µg/mL (≈ 1.09 µM) | MIC ([10]; first USA100 column): 5.76 µg/mL (≈ 17.5 µM) | MIC ([10]; third USA100 column): 0.09 µg/mL (≈ 0.273 µM) | MIC [11]: 0.36 µg/mL (≈ 1.09 µM) | MIC [12]: 0.36 µg/mL (≈ 1.09 µM) | MIC [13]: 0.72 µg/mL (≈ 2.19 µM)

COc1cc(Cc2cnc(N)nc2N)cc(OC)c1OC [TMP, trimethoprim, reference compound]
MIC MRSA [4]: 0.14 µg/mL (≈ 0.482 µM) | MIC MRSA +FCS ([4]; 10% fetal calf serum): 0.14 µg/mL (≈ 0.482 µM) | MIC [4, 16]: 0.5 µM | MIC [4, 17]: 0.5 µM | MIC [5, 18]: 0.58 µg/mL | MIC [5, 19]: 2 µM | MIC [5, 20]: 2 µM | MIC ([5]; read-out: MIC S. pyogenes): 0.58 µg/mL | MIC against the F98Y strain [14]: 16 µg/mL (≈ 55.1 µM)
